Experimental findings from US20260258025A1, “INHIBITORS OF TDP-43 AND TAU AGGREGATION” (Aquinnah Pharmaceuticals, inc., priority 2023, published 2026) are described below.

For this assay, the system named is TDP-43 aggregation. Nature of the assay: TDP-43 aggregation assay in SY5Y TDP-43WT cells (high content imaging). The format is cell-based. The conditions noted are these: Homo sapiens, tetracycline induction 24 hrs, 1 hour compound pre-treatment, sodium arsenite 23 hrs, 8-point dose curve, percentage of cells with TDP-43 aggregates, read-out: IC50, Inhibition of TDP-43 Aggregation. As to the method:
Exemplary compounds disclosed herein were evaluated for efficacy in inhibiting TDP-43 inclusions cellular imaging-based assays.
The cellular model was in human neuroblastoma SH SYSY cells (ATCC, cat #: CRL-2266). The parent cell line was first engineered to stably express a tetracycline repressor protein (designated as TREx-SY5Y cells, customer cell line development by ThermoFisher). Wild-type human TDP-43 with a C-terminus eGFP tag was synthesized and cloned into pcDNA5/TO expression vector (ThermoFisher). The plasmid was transfected into TREx-SY5Y cells using Lipofectamine 2000 and hygromycin resistant colonies were selected. Expression of TDP-43WT::eGFP was examined under fluorescent microscopy and Western blot upon tetracycline induction. The clone that was used for TDP-43 aggregation assay is referred to as SY5Y TDP-43WT cells hereafter.
Compound inhibition of TDP-43 aggregation was tested in an 8-point dose curve in 96-well format. Briefly, TDP-43WT::eGFP expression was induced with […] for 24 hrs (SY5Y TDP-43WT cells). The cells were then pre-treated for 1 hour with exemplary compounds before adding sodium arsenite to a final concentration of […] and incubated for another 23 hrs. At the end of the treatment the cell monolayers were washed in PBS and fixed in 4% paraformaldehyde (PFA), diluted from 16% stock (Electron Microscopy Sciences cat: #15710-S). The inhibitory effect on TDP-43 aggregation was measured using CellInsight CX7 high content imager (ThermoFisher). The percentage of cells with TDP-43 aggregates was calculated based on the total number of cells identified by DAPI staining. An 8-point dose response curve was generated, and the IC50 for each compound tested was determined (Table 3).
In Table 3 below, A indicates an IC50 (nM)<500 nM, B indicates an IC50 (nM) 500 nM to <1000 nM, C indicates an IC50 (nM) 1000 nM to <2000 nM, D indicates an IC50 (nM) 2000 nM to <6000 nM, and E indicates an IC50 (nM) 6000 nM to ≤10000 nM.
Broadly, the IC50 is the midpoint of a concentration-inhibition curve. With `COc1cc(-c2ccc(C3CCN(C4CCOCC4)CC3)cc2)sc1C(=O)N1CC[C@H](N)C1` [Compound 293], the IC50 is 0.5 to 1 µM.
With `Cc1cc(-c2ccc(COC3CCCCC3)cc2)sc1C(=O)N1CC[C@H](N)C1` [Compound 203, (S)-(3-aminopyrrolidin-1-yl){5-[4-(cyclohexyloxymethyl)phenyl]-3-methylthiophen-2-yl}methanone] the figure was 2 to 6 µM.
The same measure for `COC(C)(C)CN1CCC(c2ccc(-c3cc(C)c(C(=O)N4CC[C@H](N)C4)s3)cc2F)CC1` [Compound 254, (S)-(3-aminopyrrolidin-1-yl)(5-(3-fluoro-4-(1-(2-methoxy-2-methylpropyl)piperidin-4-yl)phenyl)-3-methylthiophen-2-yl)methanone]: less than 0.5 µM.
For the molecule `Cc1cc(-c2ccc(COc3ccccc3)cc2)sc1C(=O)N1CC[C@H](N)C1` [Compound 204, (S)-(3-aminopyrrolidin-1-yl){3-methyl-5-[4-(phenoxymethyl)phenyl]thiophen-2-yl}methanone], the IC50 is 6 to 10 µM.
The same measure for `CC(C)(O)CN1CCC(c2ccc(-c3cc(Cl)c(C(=O)N4CC[C@H](N)C4)s3)cc2F)CC1` [Compound 256, (S)-(3-aminopyrrolidin-1-yl)(3-chloro-5-(3-fluoro-4-(1-(2-hydroxy-2-methylpropyl)piperidin-4-yl)phenyl)thiophen-2-yl)methanone]: less than 0.5 µM.
`COc1cc(-c2ccc(C3CCN(C4CCOCC4)CC3)c(F)c2)sc1C(=O)N1CC[C@H](N)C1` [Compound 292, (S)-(3-aminopyrrolidin-1-yl)(5-(3-fluoro-4-(1-(tetrahydro-2H-pyran-4-yl)piperidin-4-yl)phenyl)-3-methoxythiophen-2-yl)methanone]: the IC50 fell in the range of 0.5 to 1 µM.
The same measure for `N[C@H]1CCN(C(=O)c2sc(-c3ccc(C4CCN(C5CCOCC5)CC4)c(F)c3)cc2Cl)C1` [Compound 295, (S)-(3-aminopyrrolidin-1-yl)(3-chloro-5-(3-fluoro-4-(1-(tetrahydro-2H-pyran-4-yl)piperidin-4-yl)phenyl)thiophen-2-yl)methanone]: less than 0.5 µM; for `N[C@H]1CCN(C(=O)c2sc(-c3ccc(C4CCN(C5CCCCC5)CC4)c(F)c3)cc2Cl)C1` [Compound 269, (S)-(3-aminopyrrolidin-1-yl)(3-chloro-5-(4-(1-cyclohexylpiperidin-4-yl)-3-fluorophenyl)thiophen-2-yl)methanone]: less than 0.5 µM; for `Cc1cc(-c2ccc3c(c2)CCCC3N(C)C)sc1C(=O)N1CC[C@H](N)C1` (stereo partly drawn) [Compound 186, ((S)-3-aminopyrrolidin-1-yl)(5-(5-(dimethylamino)-5,6,7,8-tetrahydronaphthalen-2-yl)-3-methylthiophen-2-yl)methanone]: 2 to 6 µM.
The same measure for `Cc1cc(-c2ccc(C3CCN(C4CN(C)C4)CC3)cc2)sc1C(=O)N1CC[C@H](N)C1` [Compound 173, (S)-(3-aminopyrrolidin-1-yl)(3-methyl-5-(4-(1-(1-methylazetidin-3-yl)piperidin-4-yl)phenyl)thiophen-2-yl)methanone]: less than 0.5 µM; for `Cc1cc(-c2ccc(C3CCN(C4CC4)CC3)cc2)sc1C(=O)N1CC[C@H](N)C1` [Compound 175, (S)-(3-aminopyrrolidin-1-yl)(5-(4-(1-cyclopropylpiperidin-4-yl)phenyl)-3-methylthiophen-2-yl)methanone]: less than 0.5 µM.
With `CCCc1cc(-c2ccc(C3CCN(C4CCOCC4)CC3)cc2)sc1C(=O)N1CC[C@H](N)C1` [Compound 285, (S)-(3-aminopyrrolidin-1-yl)(3-propyl-5-(4-(1-(tetrahydro-2H-pyran-4-yl)piperidin-4-yl)phenyl)thiophen-2-yl)methanone] the figure was 1 to 2 µM.
Take `CCc1cc(-c2cc(C)c(C(=O)N3CC[C@H](N)C3)s2)ccc1C1CCOCC1` [Compound 157, (S)-(3-aminopyrrolidin-1-yl)(5-(3-ethyl-4-(tetrahydro-2H-pyran-4-yl)phenyl)-3-methylthiophen-2-yl)methanone]: the IC50 lay in the range of 6 to 10 µM.
With `Cc1cc(-c2ccc(-c3ccccc3)cc2)sc1C(=O)N1CC[C@H](N)C1` [Compound 234] the figure was 2 to 6 µM; with `COCCCN1CCC(c2ccc(-c3cc(C)c(C(=O)N4CC[C@H](N)C4)s3)cc2F)CC1` [Compound 275, (S)-(3-aminopyrrolidin-1-yl)(5-(3-fluoro-4-(1-(3-methoxypropyl)piperidin-4-yl)phenyl)-3-methylthiophen-2-yl)methanone], less than 0.5 µM.
Take `C=CCc1cc(-c2ccc(C3CCN(C4CCOCC4)CC3)cc2)sc1C(=O)N1CC[C@H](N)C1` [Compound 286]: the IC50 was less than 0.5 µM.
With `N[C@H]1CCN(C(=O)c2sc(-c3ccc(C4CCN(C5CCOCC5)CC4)cc3)cc2Cl)C1` [Compound 294, (S)-(3-aminopyrrolidin-1-yl)(3-chloro-5-(4-(1-(tetrahydro-2H-pyran-4-yl)piperidin-4-yl)phenyl)thiophen-2-yl)methanone] the figure was less than 0.5 µM.
In the case of `COC(C)CN1CCC(c2ccc(-c3cc(Cl)c(C(=O)N4CC[C@H](N)C4)s3)cc2F)CC1` (stereo partly drawn) [Compound 250, ((S)-3-aminopyrrolidin-1-yl)(3-chloro-5-(3-fluoro-4-(1-(2-methoxypropyl)piperidin-4-yl)phenyl)thiophen-2-yl)methanone], the IC50 is less than 0.5 µM.
With `Cc1cc(-c2ccc(C3CCN(CC(C)(C)O)CC3)c(F)c2)sc1C(=O)N1CC[C@H](N)C1` [Compound 257, (S)-(3-aminopyrrolidin-1-yl)(5-(3-fluoro-4-(1-(2-hydroxy-2-methylpropyl)piperidin-4-yl)phenyl)-3-methylthiophen-2-yl)methanone] the figure was less than 0.5 µM; with `Cc1cc(-c2ccc(C3=CCCCC3)cc2)sc1C(=O)N1CC[C@H](N)C1` [Compound 224], 6 to 10 µM; with `Cc1cc(-c2ccc(C3CCCC3)cc2)sc1C(=O)N1CC[C@H](N)C1` [Compound 241], 6 to 10 µM.
With `Cc1cc(-c2ccc(C3CCN(C4CCCCC4)CC3)c(F)c2)sc1C(=O)N1CC[C@H](N)C1` [Compound 277, (S)-(3-aminopyrrolidin-1-yl)(5-(4-(1-cyclohexylpiperidin-4-yl)-3-fluorophenyl)-3-methylthiophen-2-yl)methanone] the figure was less than 0.5 µM; with `Cc1cc(-c2ccc3c(c2)CCCO3)sc1C(=O)N1CC[C@H](N)C1` [Compound 229], 0.5 to 1 µM.
With `Cc1cc(-c2ccc(N3CCN(C4COC4)CC3)cc2)sc1C(=O)N1CC[C@H](N)C1` [Compound 154, (S)-(3-aminopyrrolidin-1-yl)(3-methyl-5-(4-(4-(oxetan-3-yl)piperazin-1-yl)phenyl)thiophen-2-yl)methanone] the figure was 0.5 to 1 µM.
In the case of `C#CCOCCOCCN1CCC(c2ccc(-c3cc(C)c(C(=O)N4CC[C@H](N)C4)s3)cc2)CC1` [Compound 290, (S)-(3-aminopyrrolidin-1-yl)(3-methyl-5-(4-(1-(2-(2-(prop-2-yn-1-yloxy)ethoxy)ethyl)piperidin-4-yl)phenyl)thiophen-2-yl)methanone], the IC50 was less than 0.5 µM.
The same measure for `COCCN1CCC(c2ccc(-c3cc(Cl)c(C(=O)N4CC[C@H](N)C4)s3)cc2F)CC1` [Compound 283, (S)-(3-aminopyrrolidin-1-yl)(3-chloro-5-(3-fluoro-4-(1-(2-methoxyethyl)piperidin-4-yl)phenyl)thiophen-2-yl)methanone]: less than 0.5 µM; for `Cc1cc(-c2ccc(N3CCOCC3)cc2)sc1C(=O)N1CC[C@H](N)C1` [Compound 239]: 0.5 to 1 µM; for `Cc1cc(-c2ccc(C3CCN(C4CCNC4)CC3)cc2)sc1C(=O)N1CC[C@H](N)C1` (stereo partly drawn) [Compound 171, ((S)-3-aminopyrrolidin-1-yl)(3-methyl-5-(4-(1-(pyrrolidin-3-yl)piperidin-4-yl)phenyl)thiophen-2-yl)methanone]: 0.5 to 1 µM.
For `Cc1cc(-c2ccc3c(c2)COCC3)sc1C(=O)N1CC[C@H](N)C1` [Compound 195, (S)-(3-aminopyrrolidin-1-yl)[5-(isochroman-7-yl)-3-methylthiophen-2-yl]methanone], the IC50 was 1 to 2 µM.
With `Cc1cc(-c2ccc(C3(N(C)C)CCCC3)cc2)sc1C(=O)N1CC[C@H](N)C1` [Compound 193, (S)-(3-aminopyrrolidin-1-yl){5[4-(1-dimethylaminocyclopentyl)phenyl]-3-methylthiophen-2-yl}methanone] the figure was 0.5 to 1 µM; with `Cc1cc(-c2ccc3c(c2)NCCC3)sc1C(=O)N1CC[C@H](N)C1` [Compound 197, (S)-(3-aminopyrrolidin-1-yl)(3-methyl-5-(1,2,3,4-tetrahydroquinolin-7-yl)thiophen-2-yl)methanone], 1 to 2 µM.
